Columns and labels:
PiT-2 = target: T1, PiT-2 (Homo sapiens, UniProt Q08357); conditions: general statement, reported in Patent Literatures 6 and 7; cited from earlier work
T1 sequence (Q08357 1-652): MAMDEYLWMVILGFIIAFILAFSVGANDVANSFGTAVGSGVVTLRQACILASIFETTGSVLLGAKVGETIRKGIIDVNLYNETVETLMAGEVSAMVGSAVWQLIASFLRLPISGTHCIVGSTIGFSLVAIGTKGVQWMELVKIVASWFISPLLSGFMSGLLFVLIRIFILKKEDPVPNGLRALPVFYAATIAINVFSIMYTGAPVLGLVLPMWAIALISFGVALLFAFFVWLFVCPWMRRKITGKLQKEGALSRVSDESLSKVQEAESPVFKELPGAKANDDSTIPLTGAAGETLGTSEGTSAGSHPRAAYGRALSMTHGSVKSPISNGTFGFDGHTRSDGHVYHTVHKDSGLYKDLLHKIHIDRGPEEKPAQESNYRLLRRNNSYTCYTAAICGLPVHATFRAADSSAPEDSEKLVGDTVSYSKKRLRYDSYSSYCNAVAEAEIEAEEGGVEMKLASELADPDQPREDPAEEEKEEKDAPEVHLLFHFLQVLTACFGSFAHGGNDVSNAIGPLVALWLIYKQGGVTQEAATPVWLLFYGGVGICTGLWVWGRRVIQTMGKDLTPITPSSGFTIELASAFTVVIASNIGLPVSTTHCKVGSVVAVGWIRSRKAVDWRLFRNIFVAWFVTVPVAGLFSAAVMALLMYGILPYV

Solubility in water = type: physicochemical; conditions: general statement
NaPi-IIb = target: T2, NaPi-IIb (Homo sapiens, UniProt O95436); conditions: general statement, reported in Patent Literatures 6 and 7; cited from earlier work
T2 sequence (O95436 1-690): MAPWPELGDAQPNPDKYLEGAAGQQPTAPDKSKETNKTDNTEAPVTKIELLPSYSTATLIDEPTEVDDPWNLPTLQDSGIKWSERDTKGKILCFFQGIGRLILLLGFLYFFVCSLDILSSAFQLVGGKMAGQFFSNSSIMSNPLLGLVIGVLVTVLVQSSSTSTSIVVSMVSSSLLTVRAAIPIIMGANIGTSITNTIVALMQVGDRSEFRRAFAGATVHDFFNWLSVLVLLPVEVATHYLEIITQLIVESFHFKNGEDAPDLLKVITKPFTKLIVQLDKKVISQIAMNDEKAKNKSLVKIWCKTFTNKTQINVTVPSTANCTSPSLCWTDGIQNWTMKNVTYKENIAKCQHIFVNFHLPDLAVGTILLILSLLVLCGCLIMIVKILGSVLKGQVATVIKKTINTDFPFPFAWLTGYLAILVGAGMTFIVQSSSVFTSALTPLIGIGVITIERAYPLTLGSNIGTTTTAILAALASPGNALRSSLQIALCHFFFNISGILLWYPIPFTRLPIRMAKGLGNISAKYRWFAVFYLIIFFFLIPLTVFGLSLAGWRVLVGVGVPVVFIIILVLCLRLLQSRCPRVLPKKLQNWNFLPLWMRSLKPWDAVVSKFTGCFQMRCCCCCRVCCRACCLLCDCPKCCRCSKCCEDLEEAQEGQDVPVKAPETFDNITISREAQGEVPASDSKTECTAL

PiT-1 = target: T3, PiT-1 (Homo sapiens, UniProt Q8WUM9); conditions: general statement, reported in Patent Literatures 6 and 7; cited from earlier work
T3 sequence (Q8WUM9 1-679): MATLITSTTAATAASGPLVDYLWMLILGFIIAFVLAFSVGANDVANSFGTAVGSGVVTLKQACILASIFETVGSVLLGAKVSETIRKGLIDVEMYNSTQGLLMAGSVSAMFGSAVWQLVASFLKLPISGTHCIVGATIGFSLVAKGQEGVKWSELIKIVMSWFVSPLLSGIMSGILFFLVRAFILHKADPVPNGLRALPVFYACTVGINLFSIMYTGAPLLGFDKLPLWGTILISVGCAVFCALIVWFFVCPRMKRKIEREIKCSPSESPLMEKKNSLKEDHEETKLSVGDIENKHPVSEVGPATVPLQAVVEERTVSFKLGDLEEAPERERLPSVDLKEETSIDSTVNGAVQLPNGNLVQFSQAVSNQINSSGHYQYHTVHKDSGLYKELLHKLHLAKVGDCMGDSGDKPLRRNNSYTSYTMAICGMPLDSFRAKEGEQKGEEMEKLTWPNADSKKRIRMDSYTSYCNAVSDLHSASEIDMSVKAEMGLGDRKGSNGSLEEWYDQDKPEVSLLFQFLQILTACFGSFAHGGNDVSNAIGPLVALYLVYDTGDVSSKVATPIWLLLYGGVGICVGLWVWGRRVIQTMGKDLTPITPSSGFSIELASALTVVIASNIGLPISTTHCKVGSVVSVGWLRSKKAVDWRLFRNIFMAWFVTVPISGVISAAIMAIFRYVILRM

Compound: COCCN(C)CCOc1ccc(CN2C(=O)C(C(=O)Nc3ccc(C(F)(F)F)cc3-c3cc(C(F)(F)F)ncn3)=C(O)C3(CCCC3)N2C)c(F)c1F.Cc1ccc(S(=O)(=O)O)cc1 [Compound I, 7-[[2,3-difluoro-4-[2-[2-methoxyethyl(methyl)amino]ethoxy]phenyl]methyl]-10-hydroxy-6-methyl-8-oxo-N-[4-(trifluoromethyl)-2-[6-(trifluoromethyl)pyrimidin-4-yl]phenyl]-6,7-diazaspiro[4,5]deca-9-ene-9-carboxamide]
- inhibitory action on PiT-2 (PiT-2): strong inhibitory action
- solubility in water (Solubility in water): hardly soluble in water
- inhibitory action on NaPi-IIb (NaPi-IIb): strong inhibitory action
- inhibitory action on PiT-1 (PiT-1): strong inhibitory action
